In brackets after ≈: the same amount, converted by molar mass. Like-named read-outs stand apart in the source and are kept apart here.
Experiments:
[1] = cited from earlier work
[2] = solubility in solvents (ethanol, methanol, water, n-hexane); type: physicochemical; details: salt of the invention
[3] = tested on: cell lines of ovarian carcinoma; details: published results; cited from earlier work
[4] = tested on: cell lines of glioblastoma multiforme; details: published results; cited from earlier work
[5] = literature value (J Pharm Sci 94(5), 2005)

SMILES: CCC[S+]([O-])c1ccc2[nH]c(NC(=O)OC)nc2c1 (centres unmarked) [ABZ-SO, Albendazole sulphoxide]
- solubility in ethanol [1, 5]: 1360 µg/mL (≈ 4830 µM)
- solubility in ethanol ([1]; non-salified sulphoxide, stated as known): circa 1 mg mL^−1
- solubility in methanol ([1]; methanol, in words): slightly soluble
- solubility in n-hexane ([1]; n-hexane, in words): practically insoluble
- solubility in water ([1]; in words): practically insoluble
- solubility in water ([1]; in words, listed as RBZ): poorly soluble
- solubility in water [1, 5]: 62 µg/mL (≈ 220 µM)

SMILES: CCC[S+]([O-])c1ccc2[n-]c(NC(=O)OC)nc2c1.[Na+] (centres unmarked) [ABZ-SO—Na]
- solubility in ethanol ([2]; ethanol): about 30 mg mL^−1
- solubility in methanol ([2]; methanol): about 30 mg mL^−1

SMILES: COC(=O)Nc1nc2ccc(C(=O)c3ccccc3)cc2[nH]1 [MBZ, mebendazole]
- cytotoxicity [3]: demonstrated cytotoxicity
- cytotoxicity [4]: demonstrated cytotoxicity

— US20190016686A1, “SALTS OF COMPOUNDS HAVING A BENZIMIDAZOLIC STRUCTURE, USES AND PROCESS FOR THE PREPARATION THEREOF” (ISTITUTO SUPERIORE DI SANITÀ, priority 2015, published 2019)
